# Entries after “also recorded” stand apart in the source; their conditions may differ.
# Experiments:
# [1] = system: B cells; assay: BioMAP proliferation readout, B cells; assay type: cell-based, human; conditions: 670 μM, 220 μM, 74 μM; concentrations not associated with cytotoxicity
# From the text: (§1) The X-axis lists the quantitative protein-based biomarker readouts measured in each system. The Y-axis represents a log-transformed ratio of the biomarker readouts for the drug-treated sample (n=1) over vehicle controls (n≥6). The grey region around the Y-axis represents the 95% significance envelope generated from historical vehicle controls. Biomarker activities are annotated when two or more consecutive concentrations change in the same direction relative to vehicle controls, are outside of the significance envelope, and have at least one concentration with an effect size >20% (|log 10 ratio|>0.1). Biomarker key activities are described as modulated if these activities increase in some systems, but decrease in others. […] As summarized in Table 2 below, the compound was active with 35 annotated readouts. […]
# (§2) Human primary cells in BioMAP® systems are used at early passage (passage 4 or earlier) to minimize adaptation to cell culture conditions and preserve physiological signaling responses. […] Test agents prepared in either DMSO (small molecules; final concentration ≤0.1%) or PBS (biologics) are added at the indicated concentrations 1-hr before stimulation, and remain in culture for 24-hrs or as otherwise indicated (48-hrs, MyoF system; 72-hrs, BT system (soluble readouts); 168-hrs, BT system (secreted IgG)). […]
# [2] = system: T cells; assay: BioMAP proliferation readout, T cells; assay type: cell-based, human; conditions: 670 μM, 220 μM; concentrations not associated with cytotoxicity
# From the text: as §1, §2
# [3] = system: fibroblasts; assay: BioMAP proliferation readout, fibroblasts; assay type: cell-based, human; conditions: 670 μM; concentrations not associated with cytotoxicity
# From the text: as §1, §2
# [4] = system: coronary artery smooth muscle cells; assay: BioMAP proliferation readout, coronary artery smooth muscle cells; assay type: cell-based, human; conditions: 670 μM, 220 μM, 74 μM; concentrations not associated with cytotoxicity
# From the text: as §1, §2
# [5] = system: 12 human primary cell-based systems; assay: BioMAP Diversity PLUS panel, protein biomarker readouts and cytotoxicity
# From the text: This example describes testing the compound prepared in Example 1 in the BioMAP Diversity PLUS (Eurofins Discovery, Burlingame, California) panel of 12 human primary cell-based systems designed to model different aspects of the human body in an in vitro format. The 12 systems in the Diversity PLUS panel allow test agent characterization in an unbiased way across a broad set of systems modeling various human disease states. BioMAP systems are constructed with one or more primary cell types from healthy human donors, with stimuli (such as cytokines or growth factors) added to capture relevant signaling networks that naturally occur in human tissue or pathological conditions. Vascular biology is modeled in both a Th1 (3C system) and a Th2 (4H system) inflammatory environment, as well as in a Th1 inflammatory state specific to arterial smooth muscle cells (CASM3C system). Additional systems recapitulate aspects of the systemic immune response including monocyte-driven Th1 inflammation (LPS system) or T cell stimulation (SAg system), chronic Th1 inflammation driven by macrophage activation (lMphg system) and the T cell-dependent activation of B cells that occurs in germinal centers (BT system). The BE3C system (Th1) and the BF4T system (Th2) represent airway inflammation of the lung, while the MyoF system models myofibroblast-lung tissue remodeling. Lastly, skin biology is addressed in the KF3CT system modeling Th1 cutaneous inflammation and the HDF3CGF system modeling wound healing.
# The X-axis lists the quantitative protein-based biomarker readouts measured in each system. The Y-axis represents a log-transformed ratio of the biomarker readouts for the drug-treated sample (n=1) over vehicle controls (n≥6). The grey region around the Y-axis represents the 95% significance envelope generated from historical vehicle controls. Biomarker activities are annotated when two or more consecutive concentrations change in the same direction relative to vehicle controls, are outside of the significance envelope, and have at least one concentration with an effect size >20% (|log 10 ratio|>0.1). Biomarker key activities are described as modulated if these activities increase in some systems, but decrease in others. Cytotoxicity is indicated on the profile plot by a thin black arrow above the X-axis, and antiproliferative effects are indicated by a thick grey arrow. Cytotoxicity and antiproliferative arrows only require one concentration to meet the indicated threshold for profile annotation. As summarized in Table 2 below, the compound was active with 35 annotated readouts. Specifically, the compound impacted inflammation-related activities (decreased Eotaxin 3, VCAM-1, MCP-1, SAA, sTNFα, MIP-1α; increased IL-1α, IL-6; modulated IL-8), immunomodulatory activities (decreased CD40, sIL-1β, sIgG, M-CSF, sIL-17A, sIL-6, sIL-17F, sIL-2), tissue remodeling activities (decreased PAI-1, uPAR, αSMA, Keratin 8/18; increased collagen I, MMP-1), and hemostasis-related activities (increased TF).
# BioMAP® panels consist of human primary cell-based systems designed to model different aspects of the human body in an in vitro format. BioMAP® systems are constructed with one or more primary cell types from healthy human donors, with stimuli (such as cytokines or growth factors) added to capture relevant signaling networks that naturally occur in human tissue or pathological conditions. Vascular biology is modeled in both a Th1 (3C system) and a Th2 (4H system) inflammatory environment, as well as in a Th1 inflammatory state specific to arterial smooth muscle cells (CASM3C system). Additional systems recapitulate aspects of the systemic immune response including monocyte-driven Th1 inflammation (LPS system) or T cell stimulation (SAg system), chronic Th1 inflammation driven by macrophage activation (Mphg system) and the T cell-dependent activation of B cells that occurs in germinal centers (BT system). […]
# [6] = system: human primary endothelial cells; assay: BioMAP proliferation readout, endothelial cells; assay type: cell-based; conditions: 670 μM, 220 μM, 74 μM; concentrations not associated with cytotoxicity
# From the text: as §1, §2
# [7] = Inflammation-related activities
# [8] = lower three concentrations tested, immunomodulatory
# [9] = lower three concentrations tested, inflammation-related
# [10] = lower three concentrations tested, tissue remodeling
structure (smiles),measurement,setting,value
c1ncc(C2=NCCC2)cc1C1=NCCC1 [Example 1],antiproliferative effect on B cells,[1],antiproliferative
same,antiproliferative effect on T cells,[2],antiproliferative
same,antiproliferative effect on fibroblasts,[3],antiproliferative
same,antiproliferative effect on coronary artery smooth muscle cells,[4],antiproliferative
same,annotated readouts,[5]; Diversity PLUS Panel profile,35
same,Decreased Activity: M-CSF,[5]; Immunomodulatory activities,decreased; also recorded: M-CSF
same,Decreased Activity: sIL-6,[5]; Immunomodulatory activities,decreased; also recorded: inhibited; also recorded: sIL-6
same,Decreased Activity: sIL-10 (Table 2) / sIL-1β,[5]; Immunomodulatory activities,decreased
same,Decreased Activity: sIL-17F,[5]; Immunomodulatory activities,decreased; also recorded: SIL-17F
same,Decreased Activity: sIgG,[5]; Immunomodulatory activities,decreased and sigG
same,Decreased activity: CD40,[5]; Immunomodulatory activities,decreased and CD40
same,Decreased activity: sIL-2,[5]; Immunomodulatory activities,decreased
same,Decreased activity: sIL-17A,[5]; Immunomodulatory activities,decreased; also recorded: SIL-17A
same,Decreased Activity: Eotaxin 3,[5]; [7],decreased and Eot3
same,Decreased Activity: MIP-1α,[5]; [7],decreased
same,Decreased Activity: SAA,[5]; [7],decreased and SAA
same,Decreased Activity: sTNFα,[5]; [7],decreased; also recorded: inhibited; also recorded: sTNFα
same,Decreased activity: MCP-1,[5]; [7],decreased; also recorded: MCP-1
same,Decreased activity: VCAM-1,[5]; [7],decreased; also recorded: VCAM-1
same,Increased Activity: IL-1α,[5]; [7],increased and IL1a
same,Increased Activity: IL-6,[5]; [7],increased and IL6
same,Modulated Activity: IL-8,[5]; [7],modulated and IL8
same,Decreased Activity: Keratin 8/18,[5]; Tissue remodeling activities,decreased; also recorded: Ker8-18
same,Decreased Activity: PAI-1,[5]; Tissue remodeling activities,decreased; also recorded: PAI-1
same,Decreased Activity: uPAR,[5]; Tissue remodeling activities,decreased and uPAR
same,Decreased Activity: αSMA,[5]; Tissue remodeling activities,decreased and aSMA
same,Increased Activity: MMP-1,[5]; Tissue remodeling activities,"increased; also recorded: MMP1,"
same,Increased Activity: collagen I,[5]; Tissue remodeling activities,increased; also recorded: Col-1
same,annotated readouts,[5]; lower three concentrations tested,23
same,TF,"[5]; lower three concentrations tested, hemostasis-related",increased
same,sIL-1β,[5]; [8],decreased
same,sIL-2,[5]; [8],decreased
same,sIL-6,[5]; [8],decreased
same,sIL-17A,[5]; [8],decreased
same,sIL-17F,[5]; [8],decreased
same,sIgG,[5]; [8],decreased
same,Eotaxin 3,[5]; [9],decreased
same,IL-1α,[5]; [9],increased
same,IL-6,[5]; [9],increased
same,IL-8,[5]; [9],increased
same,MCP-1,[5]; [9],decreased
same,SAA,[5]; [9],decreased
same,VCAM-1,[5]; [9],decreased
same,sTNFα,[5]; [9],decreased
same,MMP-1,[5]; [10],increased
same,PAI-1,[5]; [10],decreased
same,collagen I,[5]; [10],increased
same,antiproliferative effect on human primary endothelial cells,[6],antiproliferative
